Results taken from patent publication US9883675B2, “Method for controlling pests” (SUMITOMO CHEMICAL COMPANY, LIMITED, priority 2013, dated 2018).

System: Diamondback moth (Plutella xylostella)
Test: Test Example 1: Japanese radish seed treatment, mortality of Diamondback moth larvae
Type: in vivo
Conditions: 48 h, Diamondback moth third instar larvae released 4 days after seeding, observed 2 days after release, average of two replications
Experimental: Each of the present fused heterocyclic compounds 3, 4, 5, 9, 15, 16, 17, 18, 19, 20, 22, 25, 72, 74, 85, 130, 399, 409, 414, 419, 443, 444, 445, 464 and 467 was dissolved in acetone (available from Wako Pure Chemical Industries, Ltd.) containing 5% (W/V) SOLGEN TW-20 (available from Daiichi-Kogyo Seiyaku Co. Ltd.) so as to give a prescribed concentration, and to prepare the testing solution.
Nine (9) grains of the Japanese raddish (Raphanus sativas var. longipinnatus) were placed in a 2 ml volume polypropylene microtube (manufactured by As One Co.) and thereto was added 18 μl of the above testing solution and the seeds in the microtube were shaken and stirred on Stirrer (Trade name: VORTEX-GENIE2, manufactured by Scientific Industries, Inc.). After the testing solution was spread uniformly to the whole seed, the seeds were allowed to air dry.
To a 90 ml volume of plastic cup filled with ten (10) g of culture soil (Trade name: Aisai No. 1; available from Katakura Chikkarin Co., Ltd.) was added water (5 ml) and thereto was seeded three (3) grains of the above seeds.
At four days after the seeding, Diamondback moth (Plutella xylostella) at the third instar larval stages were released in a ratio of 10 (ten) heads of insects per the cup, and then the cups were covered with nylon gauze and covered with a lid (hereinafter, referred to as “treated group”).
On the other hand, Japanese raddish was seeded by the similar procedures to the treated group except that the present fused heterocyclic compound was not dissolved in acetone (available from Wako Pure Chemical Industries, Ltd.) containing 5% (W/V) SOLGEN TW-20 (available from Daiichi-Kogyo Seiyaku Co. Ltd.), and the larvae were released, and the cups were covered with a lid (hereinafter, referred to as “Untreated group”).
At two days after the release, the surviving and death of the larvae were observed and on basis of the results of the observation, the mortalities of both groups were calculated by the following equation 1), respectively. Two replication tests were performed on each group. The average value is shown below. Mortality (%)=(Total number of […])/Total number of Tested insects×100 Equation 1)

`CCS(=O)(=O)c1cccnc1-c1nc2cc(S(=O)(=O)C(F)(F)F)cnc2n1C` [Present fused heterocyclic compound 16, 2-(3-ethylsulfonyl-pyridin-2-yl)-3-methyl-6-trifluoromethylsulfonyl-3H-imidazo[4,5-b]pyridine] was tested, and the mortality at 0.01 mg (dose 0.01 mg/1 grain of seed) was 100% and the mortality at 0.2 mg (dose 0.2 mg/1 grain of seed) was 100%.
